Where a name gives a salt, the structure may show the parent alone.
How the values were obtained:
[1] = molecular target: T1, EGFR L858R/T790M (H1975-clone #36, homozygous) (Homo sapiens, UniProt P00533, L858R/T790M); assay: EGFR degradation HTRF assay, H1975-clone #36 cells; assay type: cell-based; conditions: H1975 #36, 16h treatment; for Dmax: NCI-H1975, maximum percentage of degradation
T1 construct: designed to specifically target WT EGFR but preserve the L858R/T790M copy; host or cells: H1975-clone #36
Experimental: H1975-clone #36(L858R/T790M). H1975 cell heterozygously (from ATCC) contains alleles of WT and L858R/T790M EGFR. H1975-clone #36(L858R/T790M) was generated by gene knockout, in which the EGFR targeting sgRNA was designed to specifically target WT EGFR but preserve the L858R/T790M copy. Followed by the gene knockout, the edited H1975 cells were seeded in 96 well plates at the concentration of 1 cell/well, cultured for about 2 weeks to allow single clones formation. The formed clones were screened by DNA sequencing for the desired edition. H1975-clone #36 was confirmed as a homozygous L858R/T790M EGFR clone.
BaF3 WT(wild type), BaF3-LTC(L858R/T790M/C797S) and BaF3-DTC(Del19/T790M/C797S) cells are treated with compounds diluted in 0.2% DMSO cell culture medium and incubate for 16h, 37° C., 5% CO2, H1975-#36, H1975-#28, H1975-#23 and HCC827 cells are treated with compounds diluted in 0.2% DMSO cell culture medium on day 2, incubate for 16h, 37° C., 5% CO2.the final concentriation of compounds in all assay is start with 10 uM, 5-fold dilution, total 8 doses were included.
After 16h treatment, add HTRF lysis buffer to each well; seal the plate and incubate 1 hour at room temperature on a plate shaker; Once the cells are lysed, 16 μL of cell lysate are transferred to a PE 384-well HTRF detection plate; 4 μL of pre-mixed HTRF antibodies are added to each well; Cover the plate with a plate sealer, spin 1000 rpm for 1 min, Incubate overnight at room temperature; Read on BMG PheraStar with HTRF protocol (337 nm-665 nm-620 nm).
The inhibition (degradation) percentage of the compound was calculated by the following equation: Inhibition percentage of Compound=100-100×(Signal-low control)/(High control-low control), wherein signal=each test compound group
High control=Cell group with added DMSO and without compound, indicating microplate readings without EGFR degradation;
Dmax is the maximum percentage of inhibition (degradation).
The IC50 (DC50) value of a compound can be obtained by fitting the following equation
Y=Bottom+(TOP−Bottom)/(1+((IC50/X)^hillslope))
Wherein, X and Y are known values, and IC50, Hillslope, Top and Bottom are the parameters obtained by fitting with software. Y is the inhibition percentage (calculated from the equation), X is the concentration of the compound; IC50 is the concentration of the compound when the 50% inhibition is reached. The smaller the IC50 value is, the stronger the inhibitory ability of the compound is. Vice versa, the higher the IC50 value is, the weaker the inhibitory ability of the compound is; Hillslope represents the slope of the fitted curve, generally around 1*; Bottom represents the minimum value of the curve obtained by data fitting, which is generally 0%±20%; Top represents the maximum value of the curve obtained by data fitting, which is generally 100%±20%. The experimental data were fitted by calculating and analyzing with Dotmatics data analysis software.

[2] = molecular target: T2, EGFR (HCC827 cells) (Homo sapiens, UniProt P00533, DEL746-750); assay: EGFR degradation HTRF assay, HCC827 cells; assay type: cell-based; conditions: HCC827, 16h treatment; for Dmax: maximum percentage of degradation
T2 construct: endogenous in cells; host or cells: HCC827
In short: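 Cells treated 16 h at 37 °C, 5% CO2 in medium with 0.2% DMSO; top final concentration 10 uM, 5-fold dilution, 8 doses. Lysates read by HTRF (665/620 nm); degradation % versus DMSO high control, DC50 from four-parameter fit, Dmax as maximal degradation.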

T2 sequence (P00533 with tags, fused parts or gaps DEL746-750): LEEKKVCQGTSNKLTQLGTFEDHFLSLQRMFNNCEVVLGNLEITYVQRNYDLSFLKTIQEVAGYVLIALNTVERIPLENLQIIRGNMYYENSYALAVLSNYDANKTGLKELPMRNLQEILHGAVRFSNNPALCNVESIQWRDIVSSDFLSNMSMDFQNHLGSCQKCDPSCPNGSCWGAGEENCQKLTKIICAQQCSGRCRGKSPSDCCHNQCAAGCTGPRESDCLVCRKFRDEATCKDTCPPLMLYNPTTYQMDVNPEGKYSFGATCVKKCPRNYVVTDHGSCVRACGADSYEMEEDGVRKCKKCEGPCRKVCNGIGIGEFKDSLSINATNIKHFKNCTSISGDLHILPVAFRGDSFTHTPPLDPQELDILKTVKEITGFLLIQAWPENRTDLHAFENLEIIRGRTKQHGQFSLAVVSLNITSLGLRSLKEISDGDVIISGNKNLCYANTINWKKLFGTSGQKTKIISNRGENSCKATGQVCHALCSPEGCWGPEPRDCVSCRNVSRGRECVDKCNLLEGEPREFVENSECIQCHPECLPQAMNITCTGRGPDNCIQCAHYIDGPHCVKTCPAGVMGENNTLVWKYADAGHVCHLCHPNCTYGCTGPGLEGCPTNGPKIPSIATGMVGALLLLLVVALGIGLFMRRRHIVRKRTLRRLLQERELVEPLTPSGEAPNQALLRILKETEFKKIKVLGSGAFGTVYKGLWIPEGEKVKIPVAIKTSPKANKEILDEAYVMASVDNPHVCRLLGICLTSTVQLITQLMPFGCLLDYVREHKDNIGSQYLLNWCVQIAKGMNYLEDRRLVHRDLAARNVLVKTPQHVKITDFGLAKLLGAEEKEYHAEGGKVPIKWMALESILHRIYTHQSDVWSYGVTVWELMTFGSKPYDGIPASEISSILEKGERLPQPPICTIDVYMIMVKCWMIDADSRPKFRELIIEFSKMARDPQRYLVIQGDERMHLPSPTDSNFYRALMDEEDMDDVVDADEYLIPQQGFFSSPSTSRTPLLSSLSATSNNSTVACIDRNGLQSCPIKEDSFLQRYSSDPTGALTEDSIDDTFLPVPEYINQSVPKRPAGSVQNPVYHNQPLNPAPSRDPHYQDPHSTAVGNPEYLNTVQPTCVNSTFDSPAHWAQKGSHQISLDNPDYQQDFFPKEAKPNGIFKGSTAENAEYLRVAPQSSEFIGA
T1 sequence (P00533 25-1210 T790M/L858R): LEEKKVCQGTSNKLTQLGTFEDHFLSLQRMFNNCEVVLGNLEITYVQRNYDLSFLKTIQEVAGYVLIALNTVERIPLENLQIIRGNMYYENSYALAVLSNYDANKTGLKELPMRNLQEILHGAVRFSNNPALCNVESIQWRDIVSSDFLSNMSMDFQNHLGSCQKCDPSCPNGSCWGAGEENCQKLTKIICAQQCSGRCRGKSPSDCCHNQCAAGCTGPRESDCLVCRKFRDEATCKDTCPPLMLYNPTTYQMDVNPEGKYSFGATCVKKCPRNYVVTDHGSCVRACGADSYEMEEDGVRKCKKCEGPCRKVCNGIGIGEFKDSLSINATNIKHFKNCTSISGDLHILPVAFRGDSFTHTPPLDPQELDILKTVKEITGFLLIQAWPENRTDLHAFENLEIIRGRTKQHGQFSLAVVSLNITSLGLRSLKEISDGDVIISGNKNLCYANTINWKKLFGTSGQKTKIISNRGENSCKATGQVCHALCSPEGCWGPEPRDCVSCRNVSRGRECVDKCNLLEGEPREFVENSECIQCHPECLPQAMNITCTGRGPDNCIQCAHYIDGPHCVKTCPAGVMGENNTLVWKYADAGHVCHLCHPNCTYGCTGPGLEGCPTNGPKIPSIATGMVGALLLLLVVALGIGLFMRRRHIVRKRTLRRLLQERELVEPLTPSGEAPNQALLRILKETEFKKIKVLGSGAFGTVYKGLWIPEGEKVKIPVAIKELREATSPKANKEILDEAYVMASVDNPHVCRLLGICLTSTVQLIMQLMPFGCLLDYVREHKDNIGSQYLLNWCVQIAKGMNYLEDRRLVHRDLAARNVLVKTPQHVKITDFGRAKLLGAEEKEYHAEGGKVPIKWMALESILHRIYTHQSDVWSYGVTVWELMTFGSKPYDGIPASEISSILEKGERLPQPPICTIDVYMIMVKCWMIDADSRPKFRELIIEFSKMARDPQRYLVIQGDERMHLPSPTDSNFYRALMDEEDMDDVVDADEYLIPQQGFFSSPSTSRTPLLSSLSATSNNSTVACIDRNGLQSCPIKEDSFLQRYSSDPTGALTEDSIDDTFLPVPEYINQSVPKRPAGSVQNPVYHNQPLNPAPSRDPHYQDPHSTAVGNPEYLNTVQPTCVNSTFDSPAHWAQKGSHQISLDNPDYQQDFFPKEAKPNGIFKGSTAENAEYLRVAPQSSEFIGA

Row | DC50 [1] | Dmax [1] | DC50 [2] | Dmax [2] | Compound
1 | 6.53 nM | 77.5% | 12.8 nM | 81.4% | COc1cc(N2CCN(CCC3CCN(c4ccc(C5CCC(=O)NC5=O)cc4)CC3)CC2)c(C)cc1Nc1ncc(Br)c(Nc2ccc3nccnc3c2P(C)(C)=O)n1 (stereo not drawn) [Example 90, 3-(4-(4-(2-(4-(4-((5-bromo-4-((5-(dimethylphosphoryl)quinoxalin-6-yl)amino)pyrimidin-2-yl)amino)-5-methoxy-2-methylphenyl)piperazin-1-yl)ethyl)piperidin-1-yl)phenyl)piperidine-2,6-dione]
2 | > 10000 nM | 12.2% | 14.7 nM | 74% | COc1cc(N2CCC(N(C)CC3CCN(c4ccc(N5CCC(=O)NC5=O)cc4F)CC3)CC2)c(C)cc1Nc1ncc(Br)c(Nc2ccc3nccnc3c2P(C)(C)=O)n1 [Example 82, 1-(4-(4-(((1-(4-((5-bromo-4-((5-(dimethylphosphoryl)quinoxalin-6-yl)amino)pyrimidin-2-yl)amino)-5-methoxy-2-methylphenyl)piperidin-4-yl)(methyl)amino)methyl)piperidin-1-yl)-3-fluorophenyl)dihydropyrimidine-2,4(1H,3H)-dione]
3 | 67.4 nM | 86.7% | 17 nM | 76.2% | COc1cc(N2CCC(N3CCN(C(=O)C[C@H](NC(=O)[C@@H]4C[C@@H](O)CN4C(=O)[C@@H](c4cc(C)no4)C(C)C)c4ccc(-c5scnc5C)cc4)CC3)CC2)ccc1Nc1ncc(Cl)c(Nc2ccccc2P(C)(C)=O)n1 [Example 117, (2S,4R)—N—((S)-3-(4-(1-(4-((5-chloro-4-((2-(dimethylphosphoryl)phenyl)amino)pyrimidin-2-yl)amino)-3-methoxyphenyl)piperidin-4-yl)piperazin-1-yl)-1-(4-(4-methylthiazol-5-yl)phenyl)-3-oxopropyl)-4-hydroxy-1-((R)-3-methyl-2-(3-methylisoxazol-5-yl)butanoyl)pyrrolidine-2-carboxamide]
4 | 5.24 nM | 73.3% | 8.56 nM | 88.9% | COc1cc(N2CCC(N3CCN(CCc4ccc(NC5CCC(=O)NC5=O)cc4)CC3)CC2)ccc1Nc1ncc(Cl)c(Nc2ccccc2NS(C)(=O)=O)n1 (stereo not drawn) [Example 140, N-(2-((5-chloro-2-((4-(4-(4-(4-((2,6-dioxopiperidin-3-yl)amino)phenethyl)piperazin-1-yl)piperidin-1-yl)-2-methoxyphenyl)amino)pyrimidin-4-yl)amino)phenyl)methanesulfonamide]
5 | 9.02 nM | 83.9% | 12.8 nM | 85.3% | COc1cc(N2CCC(N3CCN(CCc4ccc(C5CCC(=O)NC5=O)cc4)CC3)CC2)ccc1Nc1ncc(Cl)c(Nc2ccccc2N(C)S(C)(=O)=O)n1 (stereo not drawn) [Example 119, N-(2-((5-chloro-2-((4-(4-(4-(4-(2,6-dioxopiperidin-3-yl)phenethyl)piperazin-1-yl)piperidin-1-yl)-2-methoxyphenyl)amino)pyrimidin-4-yl)amino)phenyl)-N-methylmethane sulfonamide]
6 | 6.23 nM | 84.7% | 59.6 nM | 91.8% | COc1cc(N2CCN(CC3CCN(c4ccc(C5CCC(=O)NC5=O)cc4)CC3)CC2)ccc1Nc1ncc(Br)c(Nc2ccc3nccnc3c2P(C)(C)=O)n1 (stereo not drawn) [Example 89, 3-(4-(4-((4-(4-((5-bromo-4-((5-(dimethylphosphoryl)quinoxalin-6-yl)amino)pyrimidin-2-yl)amino)-3-methoxyphenyl)piperazin-1-yl)methyl)piperidin-1-yl)phenyl)piperidine-2,6-dione]
7 | 11.9 nM | 64.7% | 35.9 nM | 71.4% | COc1cc(N2CCC(N3CCN(CCCOc4ccc(OC5CCC(=O)NC5=O)cc4)CC3)CC2)ccc1Nc1ncc(Cl)c(Nc2ccccc2N(C)S(C)(=O)=O)n1 (stereo not drawn) [Example 127, N-(2-((5-chloro-2-((4-(4-(4-(3-(4-((2,6-dioxopiperidin-3 yl)oxy)phenoxy)propyl)piperazin-1-yl)piperidin-1-yl)-2-methoxyphenyl)amino)pyrimidin-4-yl)amino)phenyl)-N-methylmethanesulfonamide]
8 | 9030 nM | 61.6% | 147 nM | 71.3% | COc1cc(N2CCN(CC3CCN(c4ccc(N5CCC(=O)NC5=O)cc4)CC3)CC2)c(C)cc1Nc1ncc(Br)c(Nc2ccc3nccnc3c2P(C)(C)=O)n1 [Example 95, 1-(4-(4-((4-(4-((5-bromo-4-((5-(dimethylphosphoryl)quinoxalin-6-yl)amino)pyrimidin-2-yl)amino)-5-methoxy-2-methylphenyl)piperazin-1-yl)methyl)piperidin-1-yl)phenyl)dihydropyrimidine-2,4(1H,3H)-dione]
9 | 5.72 nM | 65.5% | 6.59 nM | 74.7% | CCc1cc(Nc2ncc(Br)c(Nc3ccc4nccnc4c3P(C)(C)=O)n2)c(OC)cc1N1CCC(N2CCN(C(=O)CC3CCN(c4ccc(C5CCC(=O)NC5=O)cc4)CC3)CC2)CC1 (stereo not drawn) [Example 24, 3-(4-(4-(2-(4-(1-(4-((5-bromo-4-((5-(dimethylphosphoryl)quinoxalin-6-yl)amino)pyrimidin-2-yl)amino)-2-ethyl-5-methoxyphenyl)piperidin-4-yl)piperazin-1-yl)-2-oxoethyl)piperidin-1-yl)phenyl)piperidine-2,6-dione]
10 | 2.61 nM | 83.9% | 19.1 nM | 84% | COc1cc(N2CCC(N3CCN(CCc4ccc(NC5CCC(=O)NC5=O)cc4)CC3)CC2)ccc1Nc1ncc(Cl)c(Nc2ccccc2N(C)S(C)(=O)=O)n1 (stereo not drawn) [Example 126, N-(2-((5-chloro-2-((4-(4-(4-(4-((2,6-dioxopiperidin-3-yl)amino)phenethyl)piperazin-1-yl)piperidin-1-yl)-2-methoxyphenyl)amino)pyrimidin-4-yl)amino)phenyl)-N-methylmethanesulfonamide]
11 | 5.31 nM | 77.4% | 4.8 nM | 76.1% | CCc1cc(Nc2ncc(Br)c(Nc3ccc4nccnc4c3P(C)(C)=O)n2)c(OC)cc1N1CCC(N2CCN(C(=O)CCC3CN(c4ccc5c(c4)C(=O)N(C4CCC(=O)NC4=O)C5=O)C3)CC2)CC1 (stereo not drawn) [Example 57, 5-(3-(3-(4-(1-(4-((5-bromo-4-((5-(dimethylphosphoryl)quinoxalin-6-yl)amino)pyrimidin-2-yl)amino)-2-ethyl-5-methoxyphenyl)piperidin-4-yl)piperazin-1-yl)-3-oxopropyl)azetidin-1-yl)-2-(2,6-dioxopiperidin-3-yl)isoindoline-1,3-dione]

Row | Compound | DC50 [1] | Dmax [1] | DC50 [2] | Dmax [2]
12 | CCc1cc(Nc2ncc(Br)c(Nc3ccc4nccnc4c3P(C)(C)=O)n2)c(OC)cc1N1CCC(N2CCN(CCOc3ccc(C4CCC(=O)NC4=O)cc3)CC2)CC1 (stereo not drawn) [Example 17, 3-(4-(2-(4-(1-(4-((5-bromo-4-((5-(dimethylphosphoryl)quinoxalin-6-yl)amino)pyrimidin-2-yl)amino)-2-ethyl-5-methoxyphenyl)piperidin-4-yl)piperazin-1-yl)ethoxy)phenyl)piperidine-2,6-dione formate] | > 10000 nM | 6.77% | 25.4 nM | 73.3%
